Take `CCCNC(=O)[C@H](C)C[C@H](O)[C@H](CC1CCCCC1)NC(=O)[C@H](Cc1cscn1)NC(=O)OC(C)(C)C`: the melting point (in general, the temperature, or range, at which the solid turns liquid) fell in the range of 182 to 184 °C.

`Cc1ccc(OC(=O)CCC(=O)OOC(C)(C)C)cc1` came in with a melting point of 72 to 77 °C.

For `CCCC(=O)C(=O)NCC(OCC)(OCC)c1ccncc1`, the melting point lay in the range of 95 to 96 °C.

The compound `COc1cccc(CC(=O)O)c1OCc1cc(OC(C)C)nn1Cc1ccc2ccccc2n1` came in with a melting point of 129 to 130 °C.

Turning to `O=C(Nc1ccccc1)C(Br)(Br)Br`, the melting point lay within 97 to 98 °C.

On to `CC(C)(C)OC(=O)COc1ccc2sc(-c3ccccn3)nc(=O)c2c1`, for which the melting point lay in the range of 183 to 184 °C.

With `C=C(C)CN(CC(=O)O)c1c(N)c(=O)c1=O`, the melting point is 184 to 186 °C.

In turn, `CN(C)NC1=C2N=c3cc(Cl)ccc3=C2Oc2ccccc2N1C` had a melting point of 196 to 197 °C.

For `COC(=O)N=C(NC(=O)OC)Nn1cccc1C(=O)OC`, the melting point worked out at 160 °C.

Compound `O=C(O)c1ccc(-n2c(SCc3ccc(Cl)cc3)nc3ccc(Cl)cc32)cc1` came in with a melting point of 265 to 266 °C.

For `COc1ccc(Br)cc1C1C2CC3CC(C2)CC1C3` (stereo not given), the melting point fell in the range of 140 to 141 °C.

`Nc1ncnc2c1ncn2Cc1oc2ccccc2c(=O)c1-c1ccccc1` gave a melting point of 173 to 175 °C.

`COc1ccc(-c2c3c(cc4ccc5c(c24)OCO5)C(=O)OC3)cc1OC` gave a melting point of 221 to 223 °C.

Consider `O=S1(=O)c2ccccc2N(c2ccccc2)c2ccccc21`, for which the melting point is 212 to 217 °C.

Regarding `NS(=O)(=O)c1ccc(-c2c(-c3ccccc3)noc2COc2ccc(C(=O)O)cc2)cc1`, the melting point is 206 to 208 °C.

As to `CS(=O)(=O)c1ccc(-c2c(Cl)c3cccccc-3c2-c2ccccc2)cc1`, the melting point lay within 140 to 142 °C.

In the case of `NC1=NC(c2ccc(OC(F)F)cc2)(c2cccc(-c3cccnc3F)c2)C2=NCCCN12` (stereo not given), the melting point fell in the range of 104 to 114 °C.

With `Cc1ccc(C)n1-c1cc2c(cc1C(F)(F)F)[nH]c(=O)c(=O)n2CC(=O)O`, the melting point is over 270 °C.

Take `O=C(O)C(O)N1C(=O)CCN1c1ccc(Cl)cc1` (stereo not given): the melting point fell in the range of 149 to 151 °C.

Regarding `CCc1c(-c2ccc(OCc3ccccc3)cc2)c2ccc3c(OC)ccc1n32`, the melting point lay in the range of 78 to 81 °C.

In turn, `CC1(C)Cc2c(c(N3CCOCC3)nc3sc4c(NCC(=O)N5CCOCC5)ncnc4c23)CO1` yielded a melting point of 209 to 210 °C.

The compound `OCC1Oc2ccccc2OC1CO` (stereo not given) came in with a melting point of 119 to 120 °C.

As to `Nc1ncnc2c1ncn2OCCCOCP(=O)(O)O`, the melting point was 246 to 249 °C.

Regarding `COc1cc(N)c(C)cc1N=Nc1ccc([N+](=O)[O-])cc1`, the melting point fell in the range of 136 to 137 °C.

For the compound `COc1ccc(S(=O)(=O)Nc2nc(-c3cccc([N+](=O)[O-])c3)c(CN3CCOCC3)s2)cc1OC`, the melting point was found to be 143 °C.

Compound `COc1cc2c(c(Cl)c1Cl)C(=O)C(C)(c1cccs1)C2` (stereo not given) had a melting point of 145 to 146 °C.

The compound `CC12C=CC(=O)C=C1CCC1C2C(=O)CC2(C)C(C(=O)CO)CCC12` (stereo not given) gave a melting point of 203 to 206 °C.

As to `CCNc1ccc(NS(=O)(=O)c2ccc(C)cc2)c(C)c1`, the melting point fell in the range of 162 to 163 °C.

As for `CCOC(=O)C1=C(C(Br)Br)Nc2ncnn2C1C` (stereo not given), the melting point lay within 170 to 171 °C.

In turn, `Cc1c(-c2ccccc2)c2cc(Cl)cc3c2n1CC3` showed a melting point of 202 to 204 °C.

Turning to `Nc1nc(=O)c2ccccc2n1Cc1ccc(F)cc1`, the melting point worked out at 170 °C.

As to `BrCc1c(Br)csc1Br`, the melting point was in the range of 89 to 90 °C.

`CCCCCCCCc1cc2c(cc1/C=C/c1ccc(C(=O)O)cc1)CCC(C)(C)CC2` gave a melting point of 180 °C.

In the case of `Cc1nc(Cc2ccc(NC(=O)/C=C/c3cnn(C)c3-c3ccc(F)cc3)cc2)sc1C`, the melting point was in the range of 210 to 211 °C.

Consider `CCOc1ccccc1O[C@@H]1CN(CC)C[C@H]1O` (relative stereo), for which the melting point lay in the range of 73 to 75 °C.

As to `CCOC(=O)c1nc(-c2ccc(F)cc2)[nH]c1CC`, the melting point is 197 to 198 °C.

In the case of `CC1CC(=O)NN=C1c1ccc(NC(=O)C(C)(C)C#N)cc1` (stereo not given), the melting point fell in the range of 225 to 227 °C.

`CC(C)(C)c1cc(C=Cc2ccccc2NC(=O)NCc2ccccn2)cc(C(C)(C)C)c1O` showed a melting point of 207 to 210 °C.

As to `COc1cc2c(cc1OC)C(C)(C)C(/C=C/C(=O)N1CCC(CCCC3CCN(C(=O)/C=C/C4=Cc5cc(OC)c(OC)cc5C4(C)C)CC3)CC1)=C2`, the melting point lay in the range of 192 to 194 °C.

`CC1=C(C2C=CN(C(=O)OCC(Cl)(Cl)Cl)N=C2)SCC(=O)N1` (stereo not given) returned a melting point of 156 to 157 °C.

In turn, `O=C(O)C(CCc1ccccc1)NS(=O)(=O)c1ccc2sc3ccccc3c2c1` (stereo not given) had a melting point of 148 to 151 °C.

With `Cc1cc2c(-c3cccc(C(F)(F)F)c3)nc(C#N)nc2s1`, the melting point lay within 121 to 122 °C.

In turn, `N#Cc1ccc(C=C2CCNC2=O)cc1` came in with a melting point of 260 °C.

Regarding `CCOC(=O)CN1C(=O)COc2cc([N+](=O)[O-])ccc21`, the melting point fell in the range of 120 to 122 °C.

On to `O=C(O)c1cc([N+](=O)[O-])cn1C1CCCC1`, for which the melting point fell in the range of 195 to 198 °C.

`Nc1nc(-c2cc(Cl)ccc2Cl)nc(N2C[C@H](O)C[C@H]2CO)n1` registered a melting point of 171 to 173 °C.

`COc1cc(N)c(Cl)cc1C(=O)NC1CCN(CC2CCN(C(C)C(C)=O)CC2)CC1` (stereo not given): the melting point is 268 to 270 °C.

On to `O=C(NC(=O)C(c1ccccc1)c1ccccc1)OCCCCc1ccccc1`, for which the melting point was determined as 118 °C.

Consider `COc1ccc(C2Sc3cc(Oc4ccccc4)ccc3NC(=O)C2O)cc1Cl` (stereo not given), for which the melting point fell in the range of 262 to 264 °C.

`O=c1c2c(Cc3cccc([N+](=O)[O-])c3)n[nH]c2c2cccnc2n1-c1ccccc1` registered a melting point of over 320 °C.

`O=NN1CCN(Cc2c[nH]c3ccccc23)CC1` gave a melting point of 116 to 118 °C.

`CCOC(=O)C1=C(C)Nc2nc(N)nc(N)c2C1c1cccc([N+](=O)[O-])c1` (stereo not given) displayed a melting point of 230 °C.

As for `CCCCc1ccc(C(=O)C(CC(=O)N[C@@H](Cc2cc(F)cc(F)c2)[C@H](O)CNCc2cccc(CC)c2)Cc2ccccc2)cc1` (stereo not given in full), the melting point was 42 to 45 °C.

With `CC1=C(c2ccc(O)cc2)C(=O)c2c(O)cc(O)cc21`, the melting point was in the range of 126 to 129 °C.

With `CC(C)(C)c1cc(-n2nc3ccc(C(F)(F)F)cc3n2)c(O)c(C(C)(C)C)c1`, the melting point was 131 to 133 °C.

`CC(CC1CCOCC1)(c1ccc(S(C)(=O)=O)cn1)c1ccc(-c2ccccn2)[nH]1` (stereo not given): the melting point lay within 135 to 136 °C.

Compound `CN(C)CCn1c(=O)[nH]c2ccccc21` came in with a melting point of 106 to 108 °C.

On to `COc1ccc(C(=O)N2CC[C@@H](O)C2=O)cc1O`, for which the melting point fell in the range of 129 to 131 °C.

For `CCOc1ccc(CCN(C(=O)O)C(=O)[C@H](C)NC(C)=O)cc1OCC`, the melting point was 84 to 86 °C.

The compound `CC(C)(C)OC(=O)CN1CCC(=O)N(CC(=O)OC(C)(C)C)CCC1=O` returned a melting point of 180 °C.

Regarding `Nc1ccc(Cl)c(C(=O)NCC23CC4CC(CC(C4)C2)C3)c1`, the melting point was determined as 214 °C.

Turning to `O=C(Nc1ccc(C(=O)Nc2ccc(Br)cn2)cn1)c1ccc(Br)nc1`, the melting point was 245 to 247 °C.

`O=C(O)COc1ccc2c(=O)c3ccc(Cl)cc3oc2c1Cl`: the melting point was found to be 270 °C.

For the compound `CC(=O)NNc1ccc([N+](=O)[O-])cc1`, the melting point is 207 to 209 °C.

`CNC(=NC#N)NCCSCc1csc(NC(=N)N)n1` came in with a melting point of 159 to 161 °C.

`N#Cc1cc(NC(=O)c2ccn(-c3ccc(F)cc3)c2)ccc1N1CCN(C2CCOCC2)CC1` gave a melting point of 240 °C.

Compound `CC1(O)CCC(CN2CCC(=C3c4ccc(F)cc4Sc4ccc(C(F)(F)F)cc43)CC2)CC1` (stereo not given) showed a melting point of 80 to 90 °C.

For `COc1ccc2c(c1)CCC1C2CCC2(C)C(O)CCC12` (stereo not given), the melting point is 121 to 124 °C.

Compound `CC1(C)OC(=O)Nc2ccc(-c3ccc(C#N)c(F)c3)cc21` displayed a melting point of 272 to 275 °C.

With `CC1(CN(c2ccc(Cl)cc2)S(C)(=O)=O)OCCO1`, the melting point was in the range of 84 to 85 °C.

With `COc1nnc(-c2ccc3ncn(-c4ccc(OC(F)(F)F)cc4)c3c2)o1`, the melting point is 150 to 151 °C.

In turn, `Cn1nnc2c(N3CCOCC3)nc(-c3ccc(NC(=O)Nc4cccs4)cc3)nc21` showed a melting point of 182 °C.

`COc1ccc2c(c1)CCC(=CO)C2=O` showed a melting point of 66 to 68 °C.

Regarding `CC(=O)Nc1ccc(OC(=O)C(CSSCC(NC(C)=O)C(=O)O)NC(C)=O)cc1` (stereo not given), the melting point fell in the range of 95 to 99 °C.

On to `C/C(=C\CC1OC(=O)NC1=O)c1cccc(OCCc2nc(-c3ccccc3)oc2C)c1` (stereo not given), for which the melting point lay in the range of 100 to 101 °C.

`Clc1cc(N2CCCC2)nc(Cl)n1` had a melting point of 100 to 104 °C.

For the compound `Cc1nc2cccc(S(=O)(=O)n3c(COC(C)(C)C(=O)O)cc4cc(Cl)ccc43)c2s1`, the melting point is 128 to 130 °C.

Turning to `CC1(C)C(=O)N(CC#CI)C(=O)N1Cc1ccccc1`, the melting point fell in the range of 109 to 112 °C.

Take `O=C1CCCN1C(=O)Oc1ccccc1Cl`: the melting point lay within 92 to 93 °C.

As to `O=C(O)C1OCc2ccccc2O1` (stereo not given), the melting point was 88 °C.

In turn, `Cc1nc(-c2cccc3nc(N[C@@H]4CCc5ccccc54)ccc23)no1` came in with a melting point of 105 °C.

`O=C(CCl)Nc1ccc2c(c1NC(=O)c1ccco1)C(=O)c1ccccc1C2=O` gave a melting point of 211 to 212 °C.

The compound `Cc1c(-c2cc([N+](=O)[O-])c(F)cc2F)ncnc1C(F)F` yielded a melting point of 85 to 86 °C.

Take `CCCn1nc(-c2ccc(O)cc2)c2cccc(-c3ccccc3)c21`: the melting point was 171 to 172 °C.

For the compound `CC(=O)N1CCC(O)(C(=O)c2ccc(F)cc2)CC1`, the melting point fell in the range of 146 to 149 °C.

The compound `O=C1Nc2cc(Cl)c(Cl)cc2N2CCNC[C@H]12` registered a melting point of 136 to 138 °C.

Take `CC(=O)CCNc1cc(C(=O)O)cc(S(N)(=O)=O)c1Oc1ccccc1`: the melting point lay in the range of 215 to 216 °C.

Compound `CC(CCCCCCNC(=O)c1ccc(OC(F)(F)F)cc1)NC(=O)c1ccc(OC(F)(F)F)cc1` (stereo not given) showed a melting point of 137 to 138 °C.

For `Oc1ccc2c(c1)CCC(n1cc[nH]c1=S)C2` (stereo not given), the melting point fell in the range of 240 to 241 °C.

As for `CCCONC(=O)c1cc(OC)cc(Oc2cccc(C(F)(F)F)c2)n1`, the melting point lay in the range of 75 to 77 °C.

These data come from a melting point compilation (Tetko et al.; mined from patent text by program, amines drawn as free bases though some values may be those of a salt).
